From article PMC11025159 (Journal of Translational Medicine, 2024) come the findings set out here.

Each structure is given as a SMILES string. Read-outs that look alike come from different tables or passages of the source.

Data set [1] has as its system athymic nude mice (NU/J Foxn1nu). As to the kind of experiment: Hair growth in athymic nude mice (topical, 28 days). Conditions: for H&E skin histopathology finding / hair follicle grade: day 28; for early onset of hair: topical. It counts as in vivo. The procedure:
The groups are as follows: Group 1-Control (untreated), Group 2-Vehicle control, Group 3-tofacitinib citrate (0.8 mg/Kg), Group 4-tofacitinib citrate (0.08 mg/Kg), Group 5-MJ04 (0.08 mg/Kg), Group 6-MJ04 (0.04 mg/Kg), Group 7-MJ04 (0.016 mg/Kg), Group 8-baricitinib (0.1 mg/Kg), Group 9-baricitinib (0.04 mg/Kg), and Group 10-baricitinib (0.02 mg/Kg). At the end of the experiment, skin samples were collected and preserved in 10% neutral buffered formalin for tissue sectioning and staining using haematoxylin and eosin (H&E). The histopathological examinations were performed under the 10× and 40× objectives of light microscope (Magnus, Mx21i), and hair follicles were graded on a scale of 0 to 4 (++++).
The skin samples collected from athymic nude mice (NU/J Foxn1^nu) were preserved in 10% neutral buffered formalin and processed for tissue sectioning. The skin sections (10 µm) of nude mice were stained using haematoxylin and eosin (H&E) and viewed under 10× and 40× objectives of the light microscope (Magnus, Mx21i). The histopathological examination of the samples was performed, and the hair follicles in the skin sections were graded on a scale of 0 to 4 (++++).

The target of a further data set is T1, JAK2 (Homo sapiens, UniProt O60674).
T1 construct: purchased BPS Bioscience 79,520
T1 sequence (O60674 whole entry): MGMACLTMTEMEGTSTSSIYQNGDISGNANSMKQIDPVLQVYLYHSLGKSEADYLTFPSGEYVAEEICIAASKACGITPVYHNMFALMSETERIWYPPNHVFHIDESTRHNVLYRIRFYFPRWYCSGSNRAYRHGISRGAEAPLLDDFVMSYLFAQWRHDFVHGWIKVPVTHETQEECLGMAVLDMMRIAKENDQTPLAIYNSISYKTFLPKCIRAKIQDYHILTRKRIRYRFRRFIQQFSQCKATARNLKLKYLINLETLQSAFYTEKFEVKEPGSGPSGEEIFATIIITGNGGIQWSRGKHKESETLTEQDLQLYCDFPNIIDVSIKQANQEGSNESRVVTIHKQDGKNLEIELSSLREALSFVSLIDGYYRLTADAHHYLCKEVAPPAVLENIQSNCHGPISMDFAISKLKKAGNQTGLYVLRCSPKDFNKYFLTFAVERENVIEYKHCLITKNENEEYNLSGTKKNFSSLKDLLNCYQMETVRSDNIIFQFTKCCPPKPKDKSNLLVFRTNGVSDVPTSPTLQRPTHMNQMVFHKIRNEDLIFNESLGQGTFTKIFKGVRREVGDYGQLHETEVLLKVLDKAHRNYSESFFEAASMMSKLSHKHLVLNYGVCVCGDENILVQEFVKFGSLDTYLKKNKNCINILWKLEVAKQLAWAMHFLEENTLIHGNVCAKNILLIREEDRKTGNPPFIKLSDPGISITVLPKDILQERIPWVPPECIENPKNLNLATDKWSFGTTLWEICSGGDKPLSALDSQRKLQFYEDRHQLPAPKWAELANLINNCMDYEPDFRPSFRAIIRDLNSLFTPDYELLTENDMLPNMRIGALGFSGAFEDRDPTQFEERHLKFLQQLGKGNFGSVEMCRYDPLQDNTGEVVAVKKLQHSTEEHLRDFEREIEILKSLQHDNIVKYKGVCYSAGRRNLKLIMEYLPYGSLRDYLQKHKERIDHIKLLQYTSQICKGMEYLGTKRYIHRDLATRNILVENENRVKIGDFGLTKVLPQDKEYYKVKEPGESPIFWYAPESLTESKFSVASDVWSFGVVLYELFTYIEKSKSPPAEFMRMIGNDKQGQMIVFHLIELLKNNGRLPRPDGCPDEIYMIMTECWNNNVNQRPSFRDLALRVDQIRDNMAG
Kind of data set: Cell-free kinase assay JAK2. Conditions: for IC50: read-out: IC50 JAK 2. It counts as biochemical. The procedure:
(§1) The cell-free kinase assays of small molecules were determined by following the manufacturer-recommended protocols. Different concentrations in triplicate were used to determine the IC50 value of the hit molecules (active molecules). For data analysis, GraphPad Prism V9.5 Software and a sigmoidal dose–response (variable slope) equation were used. Each value represents an average of three replicates per concentration.

For a further data set, the target named is T2, PI-3-K β (Homo sapiens, UniProt P42338).
T2 construct: purchased Promega Corporation V1690
T2 sequence (P42338 whole entry): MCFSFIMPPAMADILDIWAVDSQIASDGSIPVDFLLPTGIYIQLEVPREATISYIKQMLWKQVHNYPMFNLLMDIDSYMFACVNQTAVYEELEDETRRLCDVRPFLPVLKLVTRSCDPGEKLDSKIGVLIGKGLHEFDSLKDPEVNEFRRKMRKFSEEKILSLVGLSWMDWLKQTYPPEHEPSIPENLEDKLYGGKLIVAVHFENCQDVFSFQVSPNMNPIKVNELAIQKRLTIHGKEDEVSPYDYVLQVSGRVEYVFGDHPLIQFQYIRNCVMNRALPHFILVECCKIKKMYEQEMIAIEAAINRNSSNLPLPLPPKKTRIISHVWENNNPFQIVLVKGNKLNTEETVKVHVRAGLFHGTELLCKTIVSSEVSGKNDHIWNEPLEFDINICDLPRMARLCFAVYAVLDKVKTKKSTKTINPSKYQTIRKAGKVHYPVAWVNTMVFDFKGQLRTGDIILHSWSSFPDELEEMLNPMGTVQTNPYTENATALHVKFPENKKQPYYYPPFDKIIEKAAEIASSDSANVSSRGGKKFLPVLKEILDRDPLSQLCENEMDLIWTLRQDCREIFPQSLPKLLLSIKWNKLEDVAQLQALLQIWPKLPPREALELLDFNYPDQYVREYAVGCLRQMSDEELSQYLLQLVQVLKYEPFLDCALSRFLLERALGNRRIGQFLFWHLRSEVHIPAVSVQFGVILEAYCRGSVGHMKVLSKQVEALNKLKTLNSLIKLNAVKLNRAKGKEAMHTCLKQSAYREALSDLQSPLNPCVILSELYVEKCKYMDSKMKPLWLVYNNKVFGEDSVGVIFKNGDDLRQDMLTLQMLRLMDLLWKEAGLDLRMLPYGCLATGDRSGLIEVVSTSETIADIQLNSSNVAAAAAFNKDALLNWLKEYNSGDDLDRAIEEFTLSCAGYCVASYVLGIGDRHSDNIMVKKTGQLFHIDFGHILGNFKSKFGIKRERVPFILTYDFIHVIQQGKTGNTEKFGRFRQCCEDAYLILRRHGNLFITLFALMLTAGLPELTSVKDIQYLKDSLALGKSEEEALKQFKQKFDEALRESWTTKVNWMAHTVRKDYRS
T2 sequence (P27986 whole entry partner): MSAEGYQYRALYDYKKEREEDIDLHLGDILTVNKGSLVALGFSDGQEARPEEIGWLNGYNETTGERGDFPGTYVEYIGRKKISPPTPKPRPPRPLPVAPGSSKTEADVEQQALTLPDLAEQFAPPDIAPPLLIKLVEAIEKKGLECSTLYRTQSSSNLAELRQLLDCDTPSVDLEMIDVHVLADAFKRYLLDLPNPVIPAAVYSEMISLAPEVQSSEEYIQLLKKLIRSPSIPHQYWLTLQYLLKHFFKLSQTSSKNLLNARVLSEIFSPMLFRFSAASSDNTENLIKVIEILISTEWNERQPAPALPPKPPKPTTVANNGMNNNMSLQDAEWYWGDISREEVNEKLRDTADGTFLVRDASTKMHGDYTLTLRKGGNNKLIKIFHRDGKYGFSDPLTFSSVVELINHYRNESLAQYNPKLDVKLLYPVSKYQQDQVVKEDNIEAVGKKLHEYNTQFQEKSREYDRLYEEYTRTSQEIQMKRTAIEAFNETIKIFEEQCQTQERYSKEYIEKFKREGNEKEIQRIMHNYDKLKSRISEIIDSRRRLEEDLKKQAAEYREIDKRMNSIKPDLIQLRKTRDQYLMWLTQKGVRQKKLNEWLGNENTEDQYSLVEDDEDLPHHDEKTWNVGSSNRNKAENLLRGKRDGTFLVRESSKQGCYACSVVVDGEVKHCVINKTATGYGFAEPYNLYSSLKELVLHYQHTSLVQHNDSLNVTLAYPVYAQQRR
As to the kind of experiment: Cell-free kinase assay PI-3-K β. It counts as biochemical. Conditions: Km ATP. The procedure: as §1

The subject of a further data set is MCF-7. Kind of data set: MTT cell viability assay MCF-7. It counts as cell-based, human. Conditions: Homo sapiens, MCF7, 48 h. As for the experimental part:
(§2) Cell viability was evaluated using an MTT colorimetric assay. Cells were seeded (10^5 cells/mL) in 96-well plates and allowed to grow overnight at 37 ℃ with 5% CO2 in a cell-culture incubator. On the following day, the cells were treated with small molecules at different concentrations (0.2–10 micro-molar) or vehicle (DMSO). Cells were then further incubated for 48 h.
Background: Tetrazolium assays rely on reduction of a dye to a coloured formazan, in cell work by metabolically active cells.

Another data set relates to Panc-2. Kind of data set: MTT cell viability assay Panc-2. It counts as cell-based. The following applies: 48 h. The procedure: as §2
Data set [2] concerns IFN-γ-producing CD4+ T-cells. Kind of data set: T-cell differentiation of splenocytes, IFN-γ in CD4+ T-cells (Th1), flow cytometry. In kind it is cell-based, C57BL/6 mice. The following applies: dose-dependent, 0.01-10 µM. Background: A flow cytometer gives signals particle by particle.
Protocol: Splenocytes were isolated from the spleen of C57BL/6 mice. The whole spleen was crushed in a complete RPMI medium and passed through the 40 µm cell filter to obtain a single-cell suspension. The cell suspension was centrifuged at 300×g for 5 min, and the pellet was resuspended into the 1× RBC lysis buffer (Life Technology, Thermofisher, USA) for 10 min at room temperature to lyse the red blood cells. The sample was further centrifuged at the same speed and duration, and the pellet was resuspended in complete RPMI medium. Now, splenocytes were seeded into the 96-well plates (U bottom) at 3 × 10^5 cells/well density. […] For Th1 and Tc1 differentiation, IL-12 (5 ng/ml) was added and allowed to grow for four days.
Prior to harvesting, cells were further stimulated with PMA (50 ng/ml), ionomycin (1000 ng/ml), and glogi Stop (as per manufacturer recommendation) for 4 h. The plate was spun down at 2000 rpm for 10 min and washed once with FACS buffer (3% FBS, 1× PBS, and 200 mM EDTA). Cells were stained with anti-CD4-PerCP and anti-CD8-FITC antibodies (BD, Biosciences) in the dilution 1:400 by adding 100 µl/well and incubated at RT for 60 min. […] Cells were finally washed and resuspended into FACS buffer, and data was recorded into the BD accuri C6 flow cytometer, and data were analyzed by Flowjo.
A short description of data set [3]: Pharmacokinetic study, dermal application. In kind it is in vivo, C57BL/6 mice. The following applies: male, C57BL/6, mouse, topical or ocular; topical dose 30 mg/kg, plasma. The procedure:
The male C57BL/6 mice were used to study the pharmacokinetics of MJ04. MJ04 was dissolved in vehicle suspensions for dermal application (30 mg/kg). Blood samples were collected at different time points: 0 min, 30 min, 1 h, 2 h, 4 h, 8 h, 12 h, and 24 h after dermal application. Plasma samples were separated by centrifugation of whole blood and stored at less than − 70 °C until bioanalysis. The concentration of MJ04 in plasma was detected using LC–MS/MS (Agilent Technologies, 1260 Infinity system). The pharmacokinetic parameters were processed by DAS (version 3.2.8) software.

The conditions of data set [4]: rat, in vivo.

Regarding `CCS(=O)(=O)N1CC(CC#N)(n2cc(-c3ncnc4[nH]ccc34)cn2)C1` [Baricitinib, baricitinib, reference compound], the “H&E skin histopathology finding” value in data set [1] (0.02 mg/kg) is “Moderate degree of epidermal thickening”; in data set [1] (0.04 mg/kg), “Moderate degree of epidermal thickening”; in data set [1] (0.1 mg/kg), “Increased and morphologically distinct hair follicles”. Further, the hair follicle grade result in data set [1] (0.02 mg/kg) is reported as “++++ (graded on a scale ranging from 0 to 4 (++++))”; in data set [1] (0.04 mg/kg), “++++ (graded on a scale ranging from 0 to 4 (++++))”; in data set [1] (0.1 mg/kg), “+++ (graded on a scale ranging from 0 to 4 (++++))”. Further, the “early onset of hair” value in data set [1] stood at 12 days.
As to `Fc1ccc(-c2cnc3[nH]cc(-c4ccnc(NC5CC5)n4)c3c2)cc1` [MJ04], on JAK2 (1mM ATP), the IC50 (in general, the concentration at which inhibition is half-maximal) is above 10 µM. Besides, the “Fold of selectivity vs. JAK3” value at JAK2 (JAK 2) is listed as 126. In addition, the IC50 at JAK2 (Km ATP) is 0.256 µM. At PI-3-K β, this compound yielded an IC50 above 10 µM. The same compound returned an IC50 with MCF-7 of 4.47 µM. The compound further came in with an IC50 in the data set with Panc-2 of 2.77 µM. In addition, in data set [1] (0.016 mg/kg), the “H&E skin histopathology finding” value is “Mild epidermal thickening with increased hair follicles” and the hair follicle grade result was “+++ (graded on a scale ranging from 0 to 4 (++++))”. In data set [1] (0.04 mg/kg), the “H&E skin histopathology finding” value was “Mild epidermal thinning with increased hair follicles in the dermis and hypodermis”; the hair follicle grade entry is recorded as “++++ (graded on a scale ranging from 0 to 4 (++++))”. In addition, in data set [1] (0.08 mg/kg), the “H&E skin histopathology finding” value was “Minimal epidermal thickening with moderate hair follicle” and the hair follicle grade entry is on record as “++ (graded on a scale ranging from 0 to 4 (++++))”. The “early onset of hair” value in data set [1] was found to be 12 days. For the same compound, the “differentiation of naïve T cells into Th1 subsets” value in data set [2] is listed as “inhibits the differentiation of naïve T cells”. In addition, in data set [3], the Cmax (usually the highest concentration seen after dosing) was determined as 480 nM and the Tmax (in general, the time from dosing to the highest level) is 1 h. Also, in data set [4] (Wistar, 14 days), the “Globally Harmonized Classification System (GHS) category” value is “Category-5”. For the same compound, in data set [4] (2000 mg/kg), the ALB came to 4.37 ± 2.09 g/dL, the ALP is reported as 380.33 ± 161.30 U/L, the ALT was determined as 77.33 ± 3.93 U/L and the AST is recorded as 183.63 ± 16.64 U/L. In data set [4] (2000 mg/kg), this compound returned a BUN of 13.99 ± 2.92 mg/dL, a CR of 0.71 ± 0.18 mg/dL, a Ca of 11.90 ± 0.36 mg/dL and a GLB of 3.21 ± 0.09. In data set [4] (2000 mg/kg), the Glucose was determined as 91.13 ± 17.80 mg/dL, the Na came out at 145.57 ± 1.71 mM, the P is 4.84 ± 1.10 mg/dL and the TB is 0.11 ± 0.03 mg/dL. In data set [4] (2000 mg/kg), this compound registered a TG of 75.33 ± 8.33 mg/dL, a TP of 7.05 ± 0.25 g/dL and a Urea of 36.57 ± 8.43 mg/dL.
